Like-named read-outs stand apart in the source and are kept apart here.
Legend:
Assay type in all cases: cell-based
[1] = test system: A-549 (Human lung adenocarcinoma cells); assay: MTT inhibition of tumor cell growth, A-549; conditions: Homo sapiens
In short: (§1)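 Cells were seeded at 5000-10000 per well in DMEM or RPMI1640 with 10% FBS, adherent lines pre-cultured 12 h. Compounds were tested at 40 μM, with 5-concentration re-screening for those near 50% inhibition, in triplicate for 48 h at 37° C; MTT/SDS absorbance at 595 nm gave IC50 by Reed-Muench.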

[2] = test system: Wnt signaling pathway (Top-Flash reporter gene); assay: Top-Flash Wnt reporter gene assay in HEK293T cells with Wnt3a conditioned medium; conditions: Homo sapiens, HEK-293T, 6 h, 6 h
Experimental: HEK293T cells were cultured in DMEM containing 10% fetal bovine serum (Invitrogen) at 37° C., 5% CO2. The cells were passaged every other day. The density was retained at 70˜80% during passage. L cell line (CRL-2647, purchased from the gene bank of ATCC, the US) and the control cell line (CRL-2648, purchased from ATCC, US), which stably secreted mouse Wnt3a protein, were cultured in DMEM containing 50 ug/ml G418 and 10% fetal bovine serum, at 37° C., 5% CO2. When the cells grew to a density of about 70%, the medium was replaced with DMEM containing 10% fetal bovine serum. After continuous culture for 4 days, the culture was collected and centrifuged, and the supernatant was kept so that the Wnt conditioned medium was obtained. After titration assay, the conditioned medium was quick-frozen in liquid nitrogen, and placed at −80° C. for long-term storage, so that the titer was kept unchanged.
The cells were seeded to a 48-well plate at a density of […] cells per well, and transfected 20 h later. The reagents for plasmid transfection were calculated based on the amount in each well of the 48-well plate as following: the total amount of plasmid was 125 ng/well; the plasmid was first added to a serum-free medium (25 μL/well) and mixed well; PLUS reagent (Invitrogen) was then added in an amount of 0.5 μL/well and mixed well, then stood for 15 min; Lipofectamine (Invitrogen) liposome was added in an amount of 0.5 μL/well to serum-free DMEM medium (25 μL/well), and then mixed with the solution containing the plasmid and the PLUS, and stood for 15 min. The cells were cultured in serum-free DMEM medium (100 μL/well), and the final mixture of plasmid, PLUS and Lipofectamine were added to the cells. After incubation for 3 h, the transfection was stopped by the medium containing 10% fetal bovine serum (200 μL/well).
The HEK293T cells used for activity assay of the report gene were transfected by the method as shown in 2). Activity assay of Wnt reporter gene: the amount of plasmid for transfection was 5 ng/well for TOP-flash and 5 ng/well for GFP plasmid as internal standard, with lacZ added to reach a total amount of 125 ng/well. […] After treating for 6 h, Boehringer Mannheim Luci-ferase Assay Kit was used to lyse cells (200 μL/well). 50 μL from each well was pipetted into a 96-well plate. The indensity of GFP protein in the cell lysate was measured by fluorimeter FL600 (BIO-TEK Inc. Winooski, Vt.), and taken as internal standard for cell transfection efficiency. 10 μL substrate of luciferase was then added to each well, and the activity of luciferase was measured by Micro Lumate Plus (Perkin Elmer Inc. Wellesley, Mass.) luminometer. Finally, GFP indensity was used as internal standard to calibrate the activity of luciferase, i.e. the activity of Wnt reporter gene.
Calculation of IC50 (taking the calculation of IC50 of the Wnt signaling pathway for example): background (the activity as measured in the groups treated with a conditioned medium containing DMSO only) was subtracted from the reporter gene activity as measured in the groups treated by Wnt3a conditioned medium with or without the compound to be tested at different concentrations; and the obtained value was defined as the activity of the reporter gene induced by Wnt or the residual activity of the reporter gene after adding the compound to be tested. The residual activity was normalized by the activity induced by Wnt to get the relative residual activity. Then combine with the concentrations of the compound to be tested to plot a linear graph, and a dose-effect curve was fitted based on 4-parameter logistic fit. IC50 of the Wnt signaling pathway is determined as the concentration at which the relative residual activity is 0.5.

[3] = test system: SMMC-7721 (human hepatoma cells); assay: MTT inhibition of tumor cell growth, SMMC-7721; conditions: Homo sapiens
In short: as §1

[4] = test system: HL-60 (human promyelocytic leukemia cells); assay: MTT inhibition of tumor cell growth, HL-60; conditions: Homo sapiens
In short: as §1

[5] = test system: MCF-7 (human breast cancer cells); assay: MTT inhibition of tumor cell growth, MCF-7; conditions: Homo sapiens
In short: as §1

[6] = test system: SW-480 (human colon cancer cells); assay: MTT inhibition of tumor cell growth, SW-480; conditions: Homo sapiens
In short: as §1

[7] = A549, 48 h, Table 2, derivatives having potential Michael reaction acceptor
[8] = SMMC-7721, 48 h, Table 2, derivatives having potential Michael reaction acceptor
[9] = HL-60, 48 h, Table 2, derivatives having potential Michael reaction acceptor
[10] = MCF7, 48 h, Table 2, derivatives having potential Michael reaction acceptor
[11] = SW480, 48 h, Table 2, derivatives having potential Michael reaction acceptor, read-out: IC50 SW-480
[12] = A549, 48 h, Table 1, 7-hydroxy derivatives of S-3
[13] = Table 7 (second), derivatives modified on 7-hydroxyl of S-3, HEK293T, Wnt3a conditioned medium, read-out: IC50 (μM), inhibitory activity on the Wnt signaling pathway
[14] = SMMC-7721, 48 h, Table 1, 7-hydroxy derivatives of S-3
[15] = HL-60, 48 h, Table 1, 7-hydroxy derivatives of S-3
[16] = MCF7, 48 h, Table 1, 7-hydroxy derivatives of S-3
[17] = SW480, 48 h, Table 1, 7-hydroxy derivatives of S-3, read-out: IC50 SW-480
[18] = Table 9, HEK293T, Wnt3a conditioned medium, read-out: IC50(μM), inhibitory activity on the Wnt signaling pathway

SMILES | IC50 [1, 7] [nM] | IC50 [3, 8] [nM] | IC50 [4, 9] [nM] | IC50 [5, 10] [nM] | IC50 [6, 11] [nM] | IC50 [1, 12] [nM] | IC50 [2, 13] [µM] | IC50 [3, 14] [nM] | IC50 [4, 15] [nM] | IC50 [5, 16] [nM] | IC50 [6, 17] [nM] | IC50 [2, 18] [µM] | other results
C=C1C(=O)C23CC[C@H]1CC2[C@]1(COC(C)=O)CCC[C@@](C)(COC(C)=O)C1CC3=O (stereo partly shown) [Compound 47] | 2950 | 3910 | 3380 | 3380 | 3740 | – | – | – | – | – | – | – | IC50 ([1]; A549, 48 h, Table 4, derivatives obtained by reduction of the lactonic ring): 2950 nM; IC50 ([2]; Table 8, HEK293T, Wnt3a conditioned medium, read-out: IC50 (μM), inhibitory activity on the Wnt signaling pathway): 16.9 ± 1.89 µM; IC50 ([3]; SMMC-7721, 48 h, Table 4, derivatives obtained by reduction of the lactonic ring): 3910 nM; IC50 ([4]; HL-60, 48 h, Table 4, derivatives obtained by reduction of the lactonic ring): 3380 nM; IC50 ([5]; MCF7, 48 h, Table 4, derivatives obtained by reduction of the lactonic ring): 3380 nM; IC50 ([6]; SW480, 48 h, Table 4, derivatives obtained by reduction of the lactonic ring, read-out: IC50 SW-480): 3740 nM; IC50 ([6]; SW480, 48 h, Table 6, 7-carbonyl derivatives, read-out: IC50 SW-480, 7-carbonyl derivatives): 3670 nM
C=C1C(=O)[C@]23CC[C@H]1CC2[C@@]12CCC[C@@](C)(COC1=O)C2C(CN(C)C)C3=O (stereo partly shown) [Compound 10] | 830 | 710 | 3410 | 1180 | 1030 | – | – | – | – | – | – | 9.54 ± 1.34 | –
C=C1C(=O)[C@]23CC[C@H]1CC2[C@@]12CCC[C@@]4(C)C5OCCN5C1O[C@@H]3CC42 (stereo partly shown) [Compound 77] | – | – | – | – | – | – | – | – | – | – | – | – | IC50 ([1]; A549, Table 7 (first), alkaloid derivatives, 48 h): 2030 nM; IC50 ([2]; read-out: IC50 (μM), inhibitory activity on the Wnt signaling pathway): > 60 µM; IC50 ([3]; SMMC-7721, Table 7 (first), alkaloid derivatives, 48 h): 1040 nM; IC50 ([4]; HL-60, Table 7 (first), alkaloid derivatives, 48 h): 1340 nM; IC50 ([5]; MCF7, Table 7 (first), alkaloid derivatives, 48 h): 670 nM; IC50 ([6]; SW480, Table 7 (first), alkaloid derivatives, 48 h, read-out: IC50 SW-480): 1970 nM
C=C1C(=O)[C@@]23CC[C@@H](CC2[C@@]24CCC[C@@](C)(COC2=O)C14)C(=C)C3=O (stereo partly shown) [Compound 8] | – | – | – | – | – | – | – | – | – | – | – | 4.09 ± 0.07 | IC50 ([1]; A549, 48 h, Table 5, derivatives having double Michael reaction acceptor): 590 nM; IC50 ([3]; SMMC-7721, 48 h, Table 5, derivatives having double Michael reaction acceptor): 720 nM; IC50 ([4]; HL-60, 48 h, Table 5, derivatives having double Michael reaction acceptor): 2020 nM; IC50 ([5]; MCF7, 48 h, Table 5, derivatives having double Michael reaction acceptor): 960 nM; IC50 ([6]; SW480, 48 h, Table 5, derivatives having double Michael reaction acceptor, read-out: IC50 SW-480): 660 nM; IC50 ([6]; SW480, 48 h, Table 6, double Michael reaction acceptor derivatives, read-out: IC50 SW-480, derivatives having double Michael reaction acceptor): 450 nM
C=C1C(=O)C23CC[C@H]1CC2[C@]1(COC(C)=O)CCC[C@@](C)(COC(C)=O)C1[C@H](CO)C3=O (stereo partly shown) [Compound 48] | 3040 | 6130 | 5030 | 2930 | 3940 | – | – | – | – | – | – | 46.9 ± 1.26 | –

Second part, led by results:

IC50 [1, 7] [nM] | IC50 [3, 8] [nM] | IC50 [4, 9] [nM] | IC50 [5, 10] [nM] | IC50 [6, 11] [nM] | IC50 [1, 12] [nM] | IC50 [2, 13] [µM] | IC50 [3, 14] [nM] | IC50 [4, 15] [nM] | IC50 [5, 16] [nM] | IC50 [6, 17] [nM] | IC50 [2, 18] [µM] | SMILES | other results
– | – | – | – | – | 640 | 17.9 ± 0.98 | 780 | 1130 | 3670 | 2860 | – | C=C1C(=O)[C@]23CC[C@H]1CC2[C@@]12CCC[C@@](C)(COC1=O)C2C[C@H]3OC(=O)CCl (stereo partly shown) [Compound 1c] | –
– | – | – | – | – | 2970 | 14.7 ± 0.18 | 740 | 2990 | 3710 | 3950 | – | C=C1C(=O)C23CC[C@H]1CC2[C@@]12CCC[C@@](C)(COC1=O)C2C[C@H]3OC(=O)c1ccccc1 (stereo partly shown) [Compound 1j] | –
– | – | – | – | – | 2180 | 18.3 ± 0.66 | 1670 | 2390 | 2740 | 1960 | – | C=C1C(=O)[C@]23CC[C@H]1CC2[C@@]12CCC[C@@](C)(COC1=O)C2C[C@H]3OC=O (stereo partly shown) [Compound 1a] | –

Reference: US10112918B2, “15-oxospiramilactone derivatives, preparation method and uses thereof” (Kunming Institute of Botany, The Chinese Academy of Sciences, priority 2013, dated 2018)
